# Target: T1, IGFR kinase (Homo sapiens, UniProt P08069)
# T1 construct: purchased Millipore
# Test: Enzyme assay (c), IGFR kinase, Caliper LabChip
# Assay type: biochemical
# Conditions: 30 nM IGFR kinase, 6 uM ATP, 3 uM peptide mix; read-out: IGFR IC50
# T1 sequence (P08069 31-1367): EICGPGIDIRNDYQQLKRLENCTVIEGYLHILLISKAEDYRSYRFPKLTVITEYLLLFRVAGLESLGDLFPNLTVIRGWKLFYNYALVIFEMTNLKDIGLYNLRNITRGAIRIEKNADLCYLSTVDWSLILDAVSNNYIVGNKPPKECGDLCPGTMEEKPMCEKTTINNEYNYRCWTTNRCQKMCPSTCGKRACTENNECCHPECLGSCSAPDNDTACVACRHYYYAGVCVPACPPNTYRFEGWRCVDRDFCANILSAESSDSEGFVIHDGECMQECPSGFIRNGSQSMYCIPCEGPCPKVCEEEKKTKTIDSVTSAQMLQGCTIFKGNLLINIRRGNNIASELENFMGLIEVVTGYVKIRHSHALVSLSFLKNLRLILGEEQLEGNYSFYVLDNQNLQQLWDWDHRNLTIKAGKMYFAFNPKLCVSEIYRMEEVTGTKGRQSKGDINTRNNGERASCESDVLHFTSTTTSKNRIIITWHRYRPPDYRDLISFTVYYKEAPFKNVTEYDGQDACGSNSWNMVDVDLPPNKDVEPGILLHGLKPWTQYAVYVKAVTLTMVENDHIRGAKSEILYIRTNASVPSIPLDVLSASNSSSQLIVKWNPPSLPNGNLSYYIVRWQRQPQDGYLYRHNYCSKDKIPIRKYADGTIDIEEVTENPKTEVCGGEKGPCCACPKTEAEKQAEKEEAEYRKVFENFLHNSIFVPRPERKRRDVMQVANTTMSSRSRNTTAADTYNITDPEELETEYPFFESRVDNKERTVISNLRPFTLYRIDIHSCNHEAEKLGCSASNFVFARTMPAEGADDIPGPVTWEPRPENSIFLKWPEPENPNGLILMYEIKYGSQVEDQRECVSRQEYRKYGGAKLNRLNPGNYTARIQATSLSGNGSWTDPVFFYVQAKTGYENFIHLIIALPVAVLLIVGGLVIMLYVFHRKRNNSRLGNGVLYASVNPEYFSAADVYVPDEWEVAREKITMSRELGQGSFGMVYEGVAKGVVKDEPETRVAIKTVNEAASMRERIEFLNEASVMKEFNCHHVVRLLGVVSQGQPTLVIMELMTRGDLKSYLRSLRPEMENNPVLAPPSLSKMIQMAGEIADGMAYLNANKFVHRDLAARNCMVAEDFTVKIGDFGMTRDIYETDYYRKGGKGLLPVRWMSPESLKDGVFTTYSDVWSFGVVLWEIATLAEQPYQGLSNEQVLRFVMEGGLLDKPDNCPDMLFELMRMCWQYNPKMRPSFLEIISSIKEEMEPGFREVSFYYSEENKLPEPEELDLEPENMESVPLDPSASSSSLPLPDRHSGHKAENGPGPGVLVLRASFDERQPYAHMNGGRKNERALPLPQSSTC
row,Compound,IC50 [nM]
1,"COc1cc(N2CCCC2)ccc1Nc1ncc(F)c(-c2cnc3ccccn23)n1 [Example 80, 5-fluoro-4-imidazo[1,2-a]pyridin-3-yl-N-(2-methoxy-4-pyrrolidin-1-yl-phenyl)pyrimidin-2-amine]",133
2,"COc1cc(CN2CCN(C(C)=O)CC2)ccc1Nc1ncc(Cl)c(-c2cnc3ccccn23)n1 [Example 21.6, 1-[4-[[4-[(5-chloro-4-imidazo[1,2-a]pyridin-3-yl-pyrimidin-2-yl)amino]-3-methoxy-phenyl]methyl]piperazin-1-yl]ethanone]",26
3,"CCC(=O)N1CCN(c2ccc(Nc3ncc(Cl)c(-c4cnc5ccccn45)n3)c(OC)c2)CC1 [Example 42, 1-[4-[4-[(5-chloro-4-imidazo[1,2-a]pyridin-3-yl-pyrimidin-2-yl)amino]-3-methoxy-phenyl]piperazin-1-yl]propan-1-one]",18
4,"COc1cc(N2CC3CN(C(=O)CO)CC(C2)O3)ccc1Nc1ncc(Cl)c(-c2cnc3c(F)cccn23)n1 [Example 212, 1-[7-[4-[[5-chloro-4-(8-fluoroimidazo[1,2-a]pyridin-3-yl)pyrimidin-2-yl]amino]-3-methoxy-phenyl]-9-oxa-3,7-diazabicyclo[3.3.1]nonan-3-yl]-2-hydroxy-ethanone]",19
5,"COc1cc(N2CCN(C(=O)CO)CC2)ccc1Nc1ncc(Cl)c(-c2cnc3cc(C)ccn23)n1 [Example 251, 1-[4-[4-[[5-chloro-4-(7-methylimidazo[1,2-a]pyridin-3-yl)pyrimidin-2-yl]amino]-3-methoxy-phenyl]piperazin-1-yl]-2-hydroxy-ethanone]",9
6,"COc1cc(C=O)ccc1Nc1ncc(Cl)c(-c2cnc3ccccn23)n1 [Example 20A, 4-(5-chloro-4-(imidazo[1,2-a]pyridin-3-yl)pyrimidin-2-ylamino)-3-methoxybenzaldehyde]",68
7,"COc1cc(N2CCN(C(C)=O)CC2)cc(F)c1Nc1ncc(Cl)c(-c2cnc3ccccn23)n1 [Example 3.26, 1-[4-[4-[(5-chloro-4-imidazo[1,2-a]pyridin-3-yl-pyrimidin-2-yl)amino]-3-fluoro-5-methoxy-phenyl]piperazin-1-yl]ethanone]",19
8,"COc1cc(N2CCN(C(=O)N(C)CCO)CC2)ccc1Nc1ncc(Cl)c(-c2cnc3ccccn23)n1 [Example 47.1, 4-[4-[(5-chloro-4-imidazo[1,2-a]pyridin-3-yl-pyrimidin-2-yl)amino]-3-methoxy-phenyl]-N-(2-hydroxyethyl)-N-methyl-piperazine-1-carboxamide]",9
9,"COc1cc(C(=O)N2C[C@@H]3C[C@H]2CN3C)ccc1Nc1ncc(Cl)c(-c2cnc3ccccn23)n1 [Example 31, [4-[(5-chloro-4-imidazo[1,2-a]pyridin-3-yl-pyrimidin-2-yl)amino]-3-methoxy-phenyl]-[(1S,4S)-5-methyl-2,5-diazabicyclo[2.2.1]heptan-2-yl]methanone]",21
10,"COc1ccc(N2CCNCC2)cc1Nc1ncc(F)c(-c2cnc3ccccn23)n1 [Example 75, 5-fluoro-4-imidazo[1,2-a]pyridin-3-yl-N-(2-methoxy-5-piperazin-1-yl-phenyl)pyrimidin-2-amine]",172
11,"COc1ccc(N2CC[C@@H](O)C2)cc1Nc1ncc(Cl)c(-c2cnc3ccccn23)n1 [Example 3.18, (3R)-1-[3-[(5-chloro-4-imidazo[1,2-a]pyridin-3-yl-pyrimidin-2-yl)amino]-4-methoxy-phenyl]pyrrolidin-3-ol]",41
12,"COc1cc(N2CCN(CCO)[C@@H](C)C2)ccc1Nc1ncc(F)c(-c2cnc3ccccn23)n1 [Example 273, 2-[(2S)-4-[4-[(5-fluoro-4-imidazo[1,2-a]pyridin-3-yl-pyrimidin-2-yl)amino]-3-methoxy-phenyl]-2-methyl-piperazin-1-yl]ethanol]",210
13,"COc1cc(N2CCN(C)CC2)ccc1Nc1ncc(F)c(-c2cnc3ccccn23)n1 [Example 119, 5-fluoro-4-imidazo[1,2-a]pyridin-3-yl-N-[2-methoxy-4-(4-methylpiperazin-1-yl)phenyl]pyrimidin-2-amine]",95
14,"COc1ccc(N2CCC(OC)CC2)cc1Nc1ncc(Cl)c(-c2cnc3ccccn23)n1 [Example 3.20, 5-chloro-4-imidazo[1,2-a]pyridin-3-yl-N-[2-methoxy-5-(4-methoxy-1-piperidyl)phenyl]pyrimidin-2-amine]",43
15,"COc1cc(N2CCN(C(C)=O)CC2)ccc1Nc1ncc(C)c(-c2cnn3ccccc23)n1 [Example 158, 1-[4-[3-methoxy-4-[(5-methyl-4-pyrazolo[1,5-a]pyridin-3-yl-pyrimidin-2-yl)amino]phenyl]piperazin-1-yl]ethanone]",15
16,"COc1cc(N2CCN(C(C)(C)CO)CC2)ccc1Nc1ncc(C)c(-c2cnc3ccc(F)cn23)n1 [Example 260, 2-[4-[4-[[4-(6-fluoroimidazo[1,2-a]pyridin-3-yl)-5-methyl-pyrimidin-2-yl]amino]-3-methoxy-phenyl]piperazin-1-yl]-2-methyl-propan-1-ol]",11

row,Compound,IC50 [nM]
1,"COc1cc(N2CCN(C(=O)CO)CC2)ccc1Nc1ncc(Cl)c(-c2cnc3c(F)cccn23)n1 [Example 180, 1-[4-[4-[[5-chloro-4-(8-fluoroimidazo[1,2-a]pyridin-3-yl)pyrimidin-2-yl]amino]-3-methoxy-phenyl]piperazin-1-yl]-2-hydroxy-ethanone]",25
2,"COc1cc(C2CCN(C(=O)[C@H](C)OC)CC2)ccc1Nc1ncc(Cl)c(-c2cnc3ccccn23)n1 [Example 28.3, (2S)-1-[4-[4-[(5-chloro-4-imidazo[1,2-a]pyridin-3-yl-pyrimidin-2-yl)amino]-3-methoxy-phenyl]-1-piperidyl]-2-methoxy-propan-1-one]",6
3,"COc1cc(N2CCN(C(=O)[C@@H](C)O)CC2)ccc1Nc1ncc(Cl)c(-c2cnc3cc(C)ccn23)n1 [Example 257, (2R)-1-[4-[4-[[5-chloro-4-(7-methylimidazo[1,2-a]pyridin-3-yl)pyrimidin-2-yl]amino]-3-methoxy-phenyl]piperazin-1-yl]-2-hydroxy-propan-1-one]",10
4,"COc1cc(CN[C@@H](C)CO)ccc1Nc1ncc(Cl)c(-c2cnc3ccccn23)n1 [Example 21.19, (2S)-2-[[4-[(5-chloro-4-imidazo[1,2-a]pyridin-3-yl-pyrimidin-2-yl)amino]-3-methoxy-phenyl]methylamino]propan-1-ol]",23
5,"COc1ccc(N2CCN(C(N)=O)CC2)cc1Nc1ncc(Cl)c(-c2cnc3ccccn23)n1 [Example 55, 4-[3-[(5-chloro-4-imidazo[1,2-a]pyridin-3-yl-pyrimidin-2-yl)amino]-4-methoxy-phenyl]piperazine-1-carboxamide]",33
6,"COc1cc(C2CCN(C(C)=O)C(C)C2)ccc1Nc1ncc(Cl)c(-c2cnc3ccccn23)n1 (centres unmarked) [Example 59.1, 1-[4-[4-[(5-chloro-4-imidazo[1,2-a]pyridin-3-yl-pyrimidin-2-yl)amino]-3-methoxy-phenyl]-2-methyl-1-piperidyl]ethanone]",17
7,"COCCN1CCN(c2ccc(Nc3ncc(F)c(-c4cnc5ccccn45)n3)c(OC)c2)CC1 [Example 82, 5-fluoro-4-imidazo[1,2-a]pyridin-3-yl-N-[2-methoxy-4-[4-(2-methoxyethyl)piperazin-1-yl]phenyl]pyrimidin-2-amine]",43
8,"COc1cc(N2CCN(C(=O)CO)CC2)ccc1Nc1ncc(Cl)c(-c2cnc3ccc(F)cn23)n1 [Example 249, 1-[4-[4-[[5-chloro-4-(6-fluoroimidazo[1,2-a]pyridin-3-yl)pyrimidin-2-yl]amino]-3-methoxy-phenyl]piperazin-1-yl]-2-hydroxy-ethanone]",5
9,"COc1cc(C2CCN(C(C)=O)CC2)ccc1Nc1ncc(Cl)c(-c2cnc3c(F)cccn23)n1 [Example 177, 1-[4-[4-[[5-chloro-4-(8-fluoroimidazo[1,2-a]pyridin-3-yl)pyrimidin-2-yl]amino]-3-methoxy-phenyl]-1-piperidyl]ethanone]",5
10,"COc1cc(N2CC3CN(CCO)CC(C2)O3)ccc1Nc1ncc(Cl)c(-c2cnc3c(F)cccn23)n1 [Example 184, 2-[7-[4-[[5-chloro-4-(8-fluoroimidazo[1,2-a]pyridin-3-yl)pyrimidin-2-yl]amino]-3-methoxy-phenyl]-9-oxa-3,7-diazabicyclo[3.3.1]nonan-3-yl]ethanol]",7
11,"COc1ccc(N2CCNCC2)cc1Nc1ncc(Cl)c(-c2cnn3ccccc23)n1 [Example 147, 5-chloro-N-(2-methoxy-5-piperazin-1-yl-phenyl)-4-pyrazolo[1,5-a]pyridin-3-yl-pyrimidin-2-amine]",14
12,"COc1cc(C2CCN(C(=O)[C@@H](C)O)CC2)ccc1Nc1ncc(Cl)c(-c2cnc3ccc(F)cn23)n1 [Example 246, (2R)-1-[4-[4-[[5-chloro-4-(6-fluoroimidazo[1,2-a]pyridin-3-yl)pyrimidin-2-yl]amino]-3-methoxyphenyl]-1-piperidyl]-2-hydroxy-propan-1-one]",4
13,"COc1cc(C2CCNCC2)ccc1Nc1ncc(C)c(-c2cnc3c(F)cccn23)n1 [Example 197, 4-(8-fluoroimidazo[1,2-a]pyridin-3-yl)-N-[2-methoxy-4-(4-piperidyl)phenyl]-5-methyl-pyrimidin-2-amine]",13
14,"COc1cc(N2CC3CN(CC(=O)N(C)C)CC(C2)O3)ccc1Nc1ncc(Cl)c(-c2cnc3c(F)cccn23)n1 [Example 205, 2-[3-[4-[[5-chloro-4-(8-fluoroimidazo[1,2-a]pyridin-3-yl)pyrimidin-2-yl]amino]-3-methoxy-phenyl]-9-oxa-3,7-diazabicyclo[3.3.1]nonan-7-yl]-N,N-dimethyl-acetamide]",7
15,"CC(=O)N1CCN(c2ccc(Nc3ncc(Cl)c(-c4cnc5ccccn45)n3)c(C)c2C)CC1 [Example 3.32, 1-[4-[4-[(5-chloro-4-imidazo[1,2-a]pyridin-3-yl-pyrimidin-2-yl)amino]-2,3-dimethyl-phenyl]piperazin-1-yl]ethanone]",12
16,"COc1cc(N2CCN(C(=O)[C@H]3CCCCN3)CC2)ccc1Nc1ncc(Cl)c(-c2cnc3ccccn23)n1 [Example 24.1, [4-[4-[(5-chloro-4-imidazo[1,2-a]pyridin-3-yl-pyrimidin-2-yl)amino]-3-methoxy-phenyl]piperazin-1-yl]-[(2R)-2-piperidyl]methanone]",8
